Tests used:
MTDH-SND1 interaction = biological target: T1, MTDH-SND1 interaction (Homo sapiens, UniProt Q7KZF4); assay: Co-immunoprecipitation (Co-IP) in SCP28 lysates with anti-MTDH antibody, Western blot for SND1; assay type: binding; conditions: 500 μM, SCP28 lysate
T1 construct: endogenous in cells; host or cells: SCP28 cells (lysate)
T1 sequence (Q7KZF4 2-910 limits assumed): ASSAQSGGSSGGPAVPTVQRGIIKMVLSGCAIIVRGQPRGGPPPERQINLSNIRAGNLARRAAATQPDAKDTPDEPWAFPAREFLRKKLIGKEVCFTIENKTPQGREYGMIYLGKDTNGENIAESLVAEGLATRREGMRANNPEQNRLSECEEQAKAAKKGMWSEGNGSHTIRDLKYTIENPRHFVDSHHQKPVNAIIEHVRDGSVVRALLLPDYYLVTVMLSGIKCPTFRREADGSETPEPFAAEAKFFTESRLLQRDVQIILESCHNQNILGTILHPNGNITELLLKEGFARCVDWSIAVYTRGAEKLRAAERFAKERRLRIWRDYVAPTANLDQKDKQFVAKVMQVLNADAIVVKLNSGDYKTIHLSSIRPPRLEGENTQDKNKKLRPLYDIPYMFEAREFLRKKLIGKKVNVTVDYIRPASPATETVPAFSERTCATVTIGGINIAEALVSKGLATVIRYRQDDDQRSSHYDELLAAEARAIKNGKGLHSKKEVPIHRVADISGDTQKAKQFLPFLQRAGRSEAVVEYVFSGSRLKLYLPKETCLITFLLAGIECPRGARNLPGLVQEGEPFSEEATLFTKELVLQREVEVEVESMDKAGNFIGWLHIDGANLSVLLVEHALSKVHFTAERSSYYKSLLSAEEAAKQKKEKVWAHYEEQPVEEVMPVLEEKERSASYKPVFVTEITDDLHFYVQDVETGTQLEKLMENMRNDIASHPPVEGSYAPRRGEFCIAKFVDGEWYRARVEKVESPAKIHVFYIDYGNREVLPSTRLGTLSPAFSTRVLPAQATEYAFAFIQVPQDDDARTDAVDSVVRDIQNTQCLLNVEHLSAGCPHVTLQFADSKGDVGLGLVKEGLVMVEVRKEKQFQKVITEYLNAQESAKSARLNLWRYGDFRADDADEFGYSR
Experimental: FIG. 3F, SCP28 cells grown confluent in each 10-cm dish were lysed with 1 ml IP lysis buffer. 500 μM of the compounds were added into each 1 ml of the samples and IP lysis buffer with 2 μg of anti-MTDH antibody. Western blot was then performed to detect SND1 that binds to MTDH.
FIG. 10E, Schematic diagram of Co-IP based confirmation of MTDH-SND1 inhibitory compounds (left). SCP28 cells were lysed for IP assay.2 μg of MTDH antibody together with 500 μM of MTDH wild type (Pep-WT) or mutant (Pep-MT) peptides were added into each 1 ml of samples. Red star indicates wild type MTDH peptide competing off SND1 that binds to MTDH.
Co-immunoprecipitation assay (Co-IP), which is a commonly used standard test to determine protein-protein interaction, was next employed to validate the candidates. Lysates of breast cancer cell line SCP28, a single cell-derived subline from the MDA-MB-231 TNBC cell line^25, was immunoprecipitated with anti-MTDH antibody alone or together with inhibitors (FIG. 3F and FIG. 10E). The samples were then incubated with Protein-A/G beads to pull down MTDH, followed by Western blot analysis to detect SND1. […] Using multiple screening and validation platforms, two classes of compounds, C26s and C32s, were obtained that inhibit MTDH-SND1 interaction.
Immunoprecipitation (IP) and western blotting (WB) analysis. For IP experiment, samples were prepared as previously described^32. 100 μl of the supernatant was transferred to a new tube as input, and the rest was incubated with 2 μg of IgG, anti-Myc (Santa Cruz, SC-40), or anti-MTDH (ThermoFisher, 40-6500) (as indicated in each experiment) overnight at 4° C. (small chemical compounds may be added at this step as indicated in each experiment). The rest standard IP procedures were performed as previously noted^32. […]

[1] = test system: E0771-OVA control (shCtrl) cells; assay: E0771-OVA shCtrl cells / OT-I splenocyte co-culture; assay type: cell-based, mouse; conditions: 24 hr co-culture
Source text: For FIGS. 33B-33D, E0771-OVA cells with (shTap1/2) or without (shCtrl) Tap1/2 knockdown were co-cultured with OT-I splenocytes with the ratio of 1:10 (tumor cells:splenocytes). Data represent mean±SEM. n=3 independent experiments. Significance determined by one-way ANOVA analysis with Sidak's test for multiple comparisons.
FIG. 33B, 24 hr after co-culture, tumor cells were collected for examining OVA (H-2K^b-SIINFEKL) expression.
FIG. 33C, 24 hr after co-culture, tumor cells were collected for examining MHC-I expression.
FIG. 33D, 24 hr after co-culture, splenocytes were collected for examining CD137 expression.
MTDH-SND1 suppresses antigen presentation by reducing Tap1/2. To confirm that MTDH-SND1 drives immune evasion through suppressing the Tap1/2 pathway, antigen presentation-deficient cells were generated by knocking down Tap1/2^20. E0771-OVA cells were transduced with lentiviruses expressing Tap1/2-targeting shRNAs. Tap1/2 KD was confirmed by western blot (FIG. 33A), and antigen presentation deficiency upon Tap1/2 KD was also validated (FIGS. 33B, 33C). Next, shCtrl (control shRNA) or Tap1/2 KD cells were co-cultured with OT-I splenocytes together with vehicle or C26-A6 treatment.

Row | Compound | MTDH-SND1 interaction (SND1 that binds to MTDH, Co-IP) (MTDH-SND1 interaction) | antigen presentation and T cell activation [1]
1 | COc1ccc(Cl)cc1S(=O)(=O)Nc1cccn2ncnc12 [Analog C26-A2] | strongest inhibitory effects | 
2 | COc1ccc(Cl)cc1S(=O)(=O)Nc1cccn2nc(C)nc12 [Analog C26-A6] | strongest inhibitory effects | significant increase

From patent publication US20240398767A1, “INHIBITORS OF THE MTDH-SND1 PROTEIN COMPLEX FOR CANCER THERAPY” (The Trustees of Princeton University, priority 2021, published 2024)
